Experimental findings from patent publication US9969716B2, “Indole derivatives as modulators of methyl modifying enzymes, compositions and uses thereof” (Constellation Pharmaceuticals, Inc., priority 2013, dated 2018) are described below.

For test [1], the system named is H3K27me3 mark in HeLa cells. The test can be described thus: H3K27me3 Alpha Hela Assay (AlphaLISA). The following applies: Homo sapiens, 72 hrs, read-out: EZH2_Cell_H3K27me3_Alpha_HeLa (EC50_K27me3). The test is classed as cell-based. The method, then:
Ten different doses of each test compound (in a series of 3-fold dilutions) were plated in duplicate 384-well tissue culture treated plates (Catalog #781080; Greiner Bio One; Monroe, N.C.). Hela cells grown in culture were trypsinized and counted using a Countess® cell counter (Catalog # C10281; Life Technologies, Grand Island, N.Y.). Cell were diluted to 67,000 cells per mL in 10% DMEM (Catalog #10569-010 Life Technologies, Grand Island, N.Y.) and 15 μL (1,000 cells) were plated into each well using the Biotek MicroFlo™ Select Dispenser (BioTek Instruments, Inc. Vermont, USA),) of the 384-well plate. Plates were incubated at 37° C./5% CO2 for 72 hrs. One of the duplicate plates was processed for HeLa assay and the other for viability.
To the plate processed for AlphaLISA was added 5 μL per well Cell-Histone Lysis buffer (1λ) (Catalog # AL009F1 Perkin Elmer; Waltham, Mass.) and the plate was incubated at RT for 30 minutes on a plate shaker with low speed (Model#4625-Q Thermo Scientific; Waltham, Mass.). Then, 10 μL per well Histone Extraction buffer (catalog # AL009F2; Perkin Elmer; Waltham, Mass.) was added and the plate further incubated at RT for 20 min on plate shaker with low speed. To each well was then added 10 μL per well of a 5× mix of anti-K27me3 acceptor beads plus Biotinylated anti-Histone H3 (C-ter) Antibody (diluted to 3 nM final) (Catalog #AL118 Perkin Elmer; Waltham, Mass.). Dilution of the acceptor beads and then anti-Histone H3 was with 1× Histone Detection buffer (Catalog # AL009F3 Perkin Elmer; Waltham, Mass.) which was produced diluted from the 10× stock provided. The plate was sealed with an aluminum plate sealer and incubated at 23° C. for 60 min. We then added 10 μL 5× solution of Streptavidin Donor beads (Catalog #6760002 Perkin Elmer; Waltham, Mass.) (20 μg/mL final in 1× Histone Detection Buffer), sealed the plate with Aluminum plate sealer and incubated at 23° C. for 30 min. The plates were then read using an EnVision-Alpha Reader (model #2104 Perkin Elmer; Waltham, Mass.).
Data from both assays was analyzed using Assay Assistant (Constellation Pharmaceuticals In-house product) and Activity Base (IDBS Ltd, Surrey, UK) template. Data files were imported to Assay Assistant and assay conditions were specified. A unique Analysis ID was created and the data files exported to Activity Base. An analysis template was created on Activity Base to measure dose-dependent inhibition of H3K27me3 mark and cell viability respectively. Readout of DMSO wells were used to normalize the data. Resulting curves were fitted using Activity base software Model 205 (IDBS Ltd, Surrey, UK). The data was checked for quality, validated and integrated in excel format using SARview (IDBS Ltd, Surrey, UK).

A further test concerns the target Y641N EZH2 (Homo sapiens, UniProt Q15910, Y641N). Nature of the test: Y641N EZH2 assay (as EZH2 assay, H3K27Me2 oligonucleosomes as substrate). The test is classed as biochemical. The method, then:
(§1) EZH2 Assay: Assays were carried out by mixing rPRC2 together with biotinylated oligonucleosome substrates in the presence of the radio-labeled enzyme co-factor, S-adenosyl-L-methionine (^3H SAM) (Perkin Elmer) and monitoring the enzymatically mediated transfer of tritiated methyl groups from ^3H SAM to histone lysine residues. The amount of resulting tritiated methyl histone product was measured by first capturing the biotinylated oligonucleosomes in streptavidin (SAV) coated FlashPlates (Perkin Elmer), followed by a wash step to remove un-reacted ^3H SAM, and then counting on a TopCount NXT 384 well plate scintillation counter (Perkin Elmer). The final assay conditions for EZH2 were as follows: 50 mM Tris Buffer pH 8.5, 1 mM DTT, 69 μM Brij-35 detergent, 5.0 mM MgCl2, 0.1 mg/mL BSA, 0.2 μM ^3H SAM, 0.2 μM biotinylated oligonucleosomes, 3.6 μM H3K27me3 peptide and 2 nM EZH2.
(§2) A 12.5 μL volume of the HMT enzyme, H3K27me3 peptide and oligonucleosome substrate in assay buffer was added to each well of the assay plate using a Multidrop Combi (ThermoFisher). Compounds were pre-incubated with the enzyme for 20 min, followed by initiation of the methyltransferase reaction by addition of 12.5 μL of ^3H SAM in assay buffer (final volume=25 μL). The final concentrations of compounds ranged from a top default concentration of 80 μM down to 0.16 μM in ten 2-fold dilution steps. Reactions were carried out for 60 minutes and quenched with 20 μL per well of 1.96 mM SAH, 50 mM Tris pH 8.5, 200 mM EDTA. Stopped reactions were transferred to SAV coated Flashplates (Perkin Elmer), incubated for 120 min, washed with a plate washer, and then read on the TopCount NXT (1.0 min/well) to measure the amount of methyl histone product formed during the reaction.

In the next test the target is EZH2 (Homo sapiens, UniProt Q15910). The test can be described thus: EZH2 assay (rPRC2, 3H SAM methyl transfer to biotinylated oligonucleosomes, FlashPlate). The test is classed as biochemical. The method, then: as §1, §2
Sequence of EZH2 (Q15910 whole entry): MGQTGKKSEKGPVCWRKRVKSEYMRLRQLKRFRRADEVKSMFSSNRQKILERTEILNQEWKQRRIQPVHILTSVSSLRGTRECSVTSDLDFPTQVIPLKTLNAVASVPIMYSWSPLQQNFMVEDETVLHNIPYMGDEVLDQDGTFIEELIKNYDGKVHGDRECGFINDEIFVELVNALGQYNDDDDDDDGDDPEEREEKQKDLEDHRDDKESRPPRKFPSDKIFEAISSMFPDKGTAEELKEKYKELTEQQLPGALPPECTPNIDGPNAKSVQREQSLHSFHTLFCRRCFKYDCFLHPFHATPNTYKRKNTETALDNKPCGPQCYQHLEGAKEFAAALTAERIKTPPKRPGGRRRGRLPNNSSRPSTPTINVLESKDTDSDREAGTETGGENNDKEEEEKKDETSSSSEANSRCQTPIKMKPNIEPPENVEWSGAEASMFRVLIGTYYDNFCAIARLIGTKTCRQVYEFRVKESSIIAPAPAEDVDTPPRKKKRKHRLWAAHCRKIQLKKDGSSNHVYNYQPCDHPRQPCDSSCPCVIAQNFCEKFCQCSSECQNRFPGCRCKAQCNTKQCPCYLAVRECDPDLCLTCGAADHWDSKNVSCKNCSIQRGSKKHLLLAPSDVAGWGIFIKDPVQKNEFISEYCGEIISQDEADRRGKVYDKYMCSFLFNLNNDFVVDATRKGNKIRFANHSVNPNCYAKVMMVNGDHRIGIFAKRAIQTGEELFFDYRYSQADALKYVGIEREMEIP
Sequence of EZH2 (O75530 whole entry partner): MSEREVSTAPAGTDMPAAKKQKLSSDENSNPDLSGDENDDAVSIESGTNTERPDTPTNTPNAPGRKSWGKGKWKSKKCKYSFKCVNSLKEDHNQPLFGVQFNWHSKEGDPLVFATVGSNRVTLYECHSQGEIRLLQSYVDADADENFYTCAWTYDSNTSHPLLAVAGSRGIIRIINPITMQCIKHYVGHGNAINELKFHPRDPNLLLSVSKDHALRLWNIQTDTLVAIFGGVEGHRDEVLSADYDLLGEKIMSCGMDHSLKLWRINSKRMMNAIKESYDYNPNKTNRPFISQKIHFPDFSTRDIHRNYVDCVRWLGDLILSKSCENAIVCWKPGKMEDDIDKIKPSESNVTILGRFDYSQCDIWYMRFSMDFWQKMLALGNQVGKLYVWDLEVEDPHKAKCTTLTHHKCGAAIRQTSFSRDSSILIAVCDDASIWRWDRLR
Sequence of EZH2 (Q15022 whole entry partner): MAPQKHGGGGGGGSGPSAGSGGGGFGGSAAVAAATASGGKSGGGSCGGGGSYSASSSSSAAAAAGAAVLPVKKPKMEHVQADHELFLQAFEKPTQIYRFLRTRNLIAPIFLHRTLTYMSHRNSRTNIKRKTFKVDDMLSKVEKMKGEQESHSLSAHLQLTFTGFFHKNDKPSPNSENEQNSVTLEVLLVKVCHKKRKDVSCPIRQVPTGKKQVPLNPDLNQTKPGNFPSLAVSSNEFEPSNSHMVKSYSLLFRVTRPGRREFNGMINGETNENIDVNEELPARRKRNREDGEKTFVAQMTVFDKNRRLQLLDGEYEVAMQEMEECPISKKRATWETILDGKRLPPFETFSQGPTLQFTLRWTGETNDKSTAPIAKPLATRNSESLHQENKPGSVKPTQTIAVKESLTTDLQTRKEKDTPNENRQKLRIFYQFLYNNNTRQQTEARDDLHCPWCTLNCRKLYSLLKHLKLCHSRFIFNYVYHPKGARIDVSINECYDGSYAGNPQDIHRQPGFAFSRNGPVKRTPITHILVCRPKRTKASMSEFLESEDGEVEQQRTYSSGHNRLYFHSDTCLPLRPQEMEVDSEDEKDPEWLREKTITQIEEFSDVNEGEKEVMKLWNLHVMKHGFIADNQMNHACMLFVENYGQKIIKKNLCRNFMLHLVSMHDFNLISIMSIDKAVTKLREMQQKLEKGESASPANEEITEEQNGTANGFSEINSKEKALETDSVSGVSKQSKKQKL
The mark [2] stands for this setting: Y641N EZH2, reconstituted H3K27Me2 oligonucleosomes as substrate, read-out: EZH2_Y641N_nuc_BSA_Brij_6.0 (IC50).
[3] abbreviates: 2 nM EZH2, 0.2 μM 3H SAM, 0.2 μM biotinylated oligonucleosomes, 3.6 μM H3K27me3 peptide, 60 min, read-out: EZH2_nuc_BSA_Brij_1.5 (IC50).

Where two headings read alike, the source gives them in different places.

Sequence of Y641N EZH2 (Q15910 whole entry Y641N): as the sequence (Q15910 whole entry) above, with Y641N counted along it
Sequence of Y641N EZH2 (O75530 whole entry partner): as the sequence (O75530 whole entry partner) above
Sequence of Y641N EZH2 (Q15022 whole entry partner): as the sequence (Q15022 whole entry partner) above

For orientation: IC50 means the concentration needed to halve the response being measured. For the molecule `COc1cc(C)[nH]c(=O)c1CNC(=O)c1c(C)n([C@H](C)C2CCN(CC(F)(F)C(F)F)CC2)c2ccccc12` [Compound 103], the EC50 in test [1] is under 0.4 µM. The half-inhibitory concentration (IC50) against Y641N EZH2 and at EZH2 was under 0.1 µM each time.
On to `COc1cc(C)[nH]c(=O)c1CNC(=O)c1c(C)n([C@H](C)C2CCN(C(=O)C3CC3)CC2)c2ccccc12` [Compound 157], for which the EC50 in test [1] lay in the range of 0.4 to 2 µM. The concentration for half-maximal inhibition (IC50) at Y641N EZH2 and on EZH2 was under 0.1 µM in each case.
Turning to `Cc1cc(C)c(CNC(=O)c2c(C)n([C@H](C)C3CCN(S(=O)(=O)CCN4CCOCC4)CC3)c3ccccc23)c(=O)[nH]1` [Compound 134], the EC50 in test [1] is under 0.4 µM. The IC50 on Y641N EZH2 and against EZH2 was under 0.1 µM in each case.
Take `COc1cc(C)[nH]c(=O)c1CNC(=O)c1c(C)n([C@H](C)C2CCN(S(=O)(=O)c3ccc(F)cc3)CC2)c2ccccc12` [Compound 137]: the EC50 in test [1] is under 0.4 µM. Further, the IC50 against Y641N EZH2 and on EZH2 was under 0.1 µM throughout.
As to `COc1cc(C)[nH]c(=O)c1CNC(=O)c1c(C)n([C@H](C)C2CCN(C[C@H](OC)C(F)(F)F)CC2)c2ccccc12` [Compound 121], the EC50 in test [1] is under 0.4 µM. The IC50 at Y641N EZH2 and against EZH2 was under 0.1 µM in each case.
On to `COc1cc(C)[nH]c(=O)c1CNC(=O)c1c(C)n([C@H](C)C2CCN(Cc3ccccn3)CC2)c2ccccc12` [Compound 148], for which, in test [1], the EC50 fell in the range of 0.4 to 2 µM. Besides, the 50% inhibitory concentration (IC50) against Y641N EZH2 and against EZH2 was under 0.1 µM in each case.
Take `COc1cc(C)[nH]c(=O)c1CNC(=O)c1c(C)n([C@H](C)C2CCN(C(=O)C3(C(F)(F)F)CCC3)CC2)c2ccccc12` [Compound 104]: the EC50 in test [1] was under 0.4 µM. In addition, the half-inhibitory concentration (IC50) at Y641N EZH2 and against EZH2 was under 0.1 µM each time.
In the case of `COc1cc(C)[nH]c(=O)c1CNC(=O)c1c(C)n([C@H](C)C2CCN(CC(F)(F)C(F)(F)F)CC2)c2ccccc12` [Compound 113], the EC50 in test [1] is under 0.4 µM. In addition, the IC50 against Y641N EZH2 and against EZH2 was under 0.1 µM each time.
As for `COc1cc(C)[nH]c(=O)c1CNC(=O)c1c(C)n([C@H](C)C2CCN(CCCC(F)(F)F)CC2)c2ccccc12` [Compound 152], the EC50 in test [1] lay within 0.4 to 2 µM. Moreover, the half-maximal inhibitory concentration (IC50) against Y641N EZH2 and at EZH2 was under 0.1 µM each time.
In the case of `CCc1cc(C)[nH]c(=O)c1CNC(=O)c1c(C)n([C@H](C)C2CCN(CCC(F)(F)F)CC2)c2ccccc12` [Compound 151], in test [1], the EC50 fell in the range of 0.4 to 2 µM. In addition, the 50% inhibitory concentration (IC50) at Y641N EZH2 and on EZH2 was under 0.1 µM throughout.
Take `Cc1cc(C)c(CNC(=O)c2c(C)n([C@H](C)C3CCN(S(=O)(=O)C4CCNCC4)CC3)c3ccccc23)c(=O)[nH]1` [Compound 172]: the concentration for half-maximal inhibition (IC50) on Y641N EZH2 (setting [2]) and on EZH2 (setting [3]) was under 0.1 µM throughout.
In the case of `COc1cc(C)[nH]c(=O)c1CNC(=O)c1c(C)n([C@H](C)C2CCN(CC3(F)CCC3)CC2)c2ccccc12` [Compound 118], the EC50 in test [1] was under 0.4 µM. Further, the IC50 against Y641N EZH2 and against EZH2 was under 0.1 µM throughout.
As for `COc1cc(C)[nH]c(=O)c1CNC(=O)c1c(C)n([C@H](C)C2CCN(Cc3cc(F)cc(F)c3)CC2)c2ccccc12` [Compound 109, (R)-1-(1-(1-(3,5-difluorobenzyl)piperidin-4-yl)ethyl)-N-((4-methoxy-6-methyl-2-oxo-1,2-dihydropyridin-3-yl)methyl)-2-methyl-1H-indole-3-carboxamide], the EC50 in test [1] is under 0.4 µM. Also, the IC50 at Y641N EZH2 and at EZH2 was under 0.1 µM throughout.
As for `Cc1cc(C)c(CNC(=O)c2c(C)n([C@H](C)C3CCN(c4cccc(CN5CCOCC5)c4)CC3)c3ccccc23)c(=O)[nH]1` [Compound 144], in test [1], the EC50 was in the range of 0.4 to 2 µM. Further, the IC50 against Y641N EZH2 and on EZH2 was under 0.1 µM throughout.
For the molecule `COc1cc(C)[nH]c(=O)c1CNC(=O)c1c(C)n([C@H](C)C2CCN(C(=O)N3CCOCC3)CC2)c2ccccc12` [Compound 167], the EC50 in test [1] was over 2 µM. Besides, the half-inhibitory concentration (IC50) at Y641N EZH2 and against EZH2 was under 0.1 µM throughout.
`COc1cc(C)[nH]c(=O)c1CNC(=O)c1c(C)n([C@H](C)C2CCN(S(=O)(=O)c3ccccc3)CC2)c2ccccc12` [Compound 138]: the EC50 in test [1] is under 0.4 µM. The IC50 against Y641N EZH2 and on EZH2 was under 0.1 µM in each case.
With `Cc1cc(Cl)c(CNC(=O)c2c(C)n([C@H](C)C3CCN(C4COC4)CC3)c3ccccc23)c(=O)[nH]1` [Compound 112], the EC50 in test [1] was under 0.4 µM. In addition, the concentration for half-maximal inhibition (IC50) against Y641N EZH2 and against EZH2 was under 0.1 µM throughout.
In the case of `Cc1cc(C)c(CNC(=O)c2c(C)n([C@H](C)C3CCN(S(=O)(=O)C4CNC4)CC3)c3ccccc23)c(=O)[nH]1` [Compound 171], the IC50 on Y641N EZH2 (setting [2]) and at EZH2 (setting [3]) was under 0.1 µM throughout.
As for `COc1cc(C)[nH]c(=O)c1CNC(=O)c1c(C)n([C@H](C)C2CCN(Cc3cccc(F)c3)CC2)c2ccccc12` [Compound 263], the EC50 in test [1] was under 0.4 µM. Further, the half-maximal inhibitory concentration (IC50) on EZH2 is under 0.1 µM.
For `COc1cc(C)[nH]c(=O)c1CNC(=O)c1c(C)n([C@H](C)C2CCN(Cc3ccnc(C)c3)CC2)c2ccccc12` [Compound 246], in that order: under 0.4 µM and under 0.1 µM.
As to `COCC(F)(F)C(=O)N1CCC([C@@H](C)n2c(C)c(C(=O)NCc3c(OC)cc(C)[nH]c3=O)c3ccccc32)CC1` [Compound 230], the EC50 in test [1] is under 0.4 µM. The molecule also registered an IC50 against EZH2 of under 0.1 µM.
For `CC[C@H](C1CCN(CC(F)F)CC1)n1c(C)c(C(=O)NCc2c(OC)cc(C)[nH]c2=O)c2ccccc21` [Compound 219], in that order: under 0.4 µM and under 0.1 µM.
As to `COc1cc(C)[nH]c(=O)c1CNC(=O)c1c(C)n([C@H](C)C2CCN(C(=O)C3CCC3)CC2)c2ccccc12` [Compound 216], the EC50 in test [1] is under 0.4 µM. For the same molecule, at EZH2, the IC50 is under 0.1 µM.
For the molecule `COc1cc(C)[nH]c(=O)c1CNC(=O)c1c(C)n([C@H](C)C2CCN(Cc3ccncc3)CC2)c2ccccc12` [Compound 245], the EC50 in test [1] is under 0.4 µM. Further, the IC50 at EZH2 was under 0.1 µM.
For `COc1cc(C)[nH]c(=O)c1CNC(=O)c1c(C)n([C@H](C)C2CCN(C(=O)Cc3ccccc3)CC2)c2ccccc12` [Compound 212], in that order: under 0.4 µM and under 0.1 µM.
On to `COc1cc(C)[nH]c(=O)c1CNC(=O)c1c(C)n([C@H](C)C2CCN(CC3(F)COC3)CC2)c2ccccc12` [Compound 222], for which the EC50 in test [1] was under 0.4 µM. At EZH2, the IC50 was under 0.1 µM.
On the same counts, the results for `COc1cc(C)[nH]c(=O)c1CNC(=O)c1c(C)n([C@H](C)C2CCN(Cc3ccnc(C(F)(F)F)c3)CC2)c2ccccc12` [Compound 251] are under 0.4 µM and under 0.1 µM.
